This is an account of results in patent US11730705B2, “Small molecule CMKLR1 antagonists in inflammatory disease” (The Board of Trustees of the Leland Stanford Junior …, priority 2019, dated 2023).

Where two headings read alike, the source gives them in different places. Where only a bound is given, the exact number is not on record here.

One data set has as its target T1, CMKLR1 (Homo sapiens, UniProt Q99788).
T1 construct: host or cells: CHO-K1 (PathHunter)
T1 sequence (Q99788 1-373): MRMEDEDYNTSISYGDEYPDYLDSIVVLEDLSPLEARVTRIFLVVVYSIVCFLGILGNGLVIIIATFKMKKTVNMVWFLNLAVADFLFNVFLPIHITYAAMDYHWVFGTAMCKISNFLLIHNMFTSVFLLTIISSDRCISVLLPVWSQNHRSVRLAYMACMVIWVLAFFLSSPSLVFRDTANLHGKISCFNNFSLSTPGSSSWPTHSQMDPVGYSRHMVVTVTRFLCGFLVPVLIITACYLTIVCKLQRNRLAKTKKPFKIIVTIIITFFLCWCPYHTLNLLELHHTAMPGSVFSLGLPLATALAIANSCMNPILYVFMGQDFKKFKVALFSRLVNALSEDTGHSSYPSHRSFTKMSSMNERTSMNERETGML
Description: β-arrestin recruitment assay (chemerin-mediated β-arrestin2 association with CMKLR1). It counts as cell-based. As to the method: (§1) FIG. 15A-15D. […] IC50 values were determined based on 6-point dose-response curves for each compound. (FIG. 15A) α-NETA. […] (FIG. 15A-15C) mean±SEM, n=3-18 independent experiments. […] 0.2 ml each compound (in 10% captisol) or vehicle control was administered by oral gavage beginning one day prior to psoriasis induction. Back skin thickness was measured daily and normalized to day 0. mean±SEM, n=10 mice for vehicle and α-NETA groups pooled from two independent trials; n=3 mice for (27) and (6) from one trial.
Cell culture. […] DiscoverX PathHunter® CHO-K1 CMKLR1 β-Arrestin Cells were grown in RPMI lacking phenol red (Gibco, Life Technologies), supplemented with L-glutamine, penicillin-streptomycin, sodium pyruvate, non-essential amino acid, BCS, hygromycin, and G418-sulfate.
β-arrestin recruitment assay. CMKLR1-CHO-β-Arrestin cells were seeded in 96 well plates at 1×10^5 cell/ml-100 ul/well and incubated overnight at 37° C., 5% CO2. The next day, media was removed and cells were pre-incubated in PBS with α-NETA or test compound (95 ul/well) in a 6 point dose response curve from 100 μM to 0.3 μM for 10 min at RT. (α-NETA and test compounds were reconstituted in DMSO; final DMSO concentration in each well was 0.1%). After 10 min, 5 ul of recombinant human chemerin (R&D Systems) at a final concentration of 20 nM was added to each well. Plates were incubated for 90 min at 37° C., 5% CO2. Media was then removed and 50 ul of chemiluminescent substrate (Tropix Gal-Screen, Applied Biosciences) was added. The plate was incubated for 1 hr at RT and luminescence was detected using the SpectraMax M5 plate reader (Molecular Devices). For each independent trial (single replicate dose curves), data was normalized to the maximum signal per compound tested and an IC50 value was generated using GraphPad Prism software. The average IC50 value for n independent trials (as specified in the table) is reported.

The test system of data set [1] is Salmonella typhimurium (TA100). Description: Ames test for genotoxicity. To be noted: concentrations up to at least 10 uM. In general terms: In the Ames test, an excess of revertant colonies over the control signals mutagenicity.
For a further data set, the target named is T2, hERG (Homo sapiens, UniProt Q12809).
T2 construct: host or cells: CHO
T2 sequence (Q12809 whole entry): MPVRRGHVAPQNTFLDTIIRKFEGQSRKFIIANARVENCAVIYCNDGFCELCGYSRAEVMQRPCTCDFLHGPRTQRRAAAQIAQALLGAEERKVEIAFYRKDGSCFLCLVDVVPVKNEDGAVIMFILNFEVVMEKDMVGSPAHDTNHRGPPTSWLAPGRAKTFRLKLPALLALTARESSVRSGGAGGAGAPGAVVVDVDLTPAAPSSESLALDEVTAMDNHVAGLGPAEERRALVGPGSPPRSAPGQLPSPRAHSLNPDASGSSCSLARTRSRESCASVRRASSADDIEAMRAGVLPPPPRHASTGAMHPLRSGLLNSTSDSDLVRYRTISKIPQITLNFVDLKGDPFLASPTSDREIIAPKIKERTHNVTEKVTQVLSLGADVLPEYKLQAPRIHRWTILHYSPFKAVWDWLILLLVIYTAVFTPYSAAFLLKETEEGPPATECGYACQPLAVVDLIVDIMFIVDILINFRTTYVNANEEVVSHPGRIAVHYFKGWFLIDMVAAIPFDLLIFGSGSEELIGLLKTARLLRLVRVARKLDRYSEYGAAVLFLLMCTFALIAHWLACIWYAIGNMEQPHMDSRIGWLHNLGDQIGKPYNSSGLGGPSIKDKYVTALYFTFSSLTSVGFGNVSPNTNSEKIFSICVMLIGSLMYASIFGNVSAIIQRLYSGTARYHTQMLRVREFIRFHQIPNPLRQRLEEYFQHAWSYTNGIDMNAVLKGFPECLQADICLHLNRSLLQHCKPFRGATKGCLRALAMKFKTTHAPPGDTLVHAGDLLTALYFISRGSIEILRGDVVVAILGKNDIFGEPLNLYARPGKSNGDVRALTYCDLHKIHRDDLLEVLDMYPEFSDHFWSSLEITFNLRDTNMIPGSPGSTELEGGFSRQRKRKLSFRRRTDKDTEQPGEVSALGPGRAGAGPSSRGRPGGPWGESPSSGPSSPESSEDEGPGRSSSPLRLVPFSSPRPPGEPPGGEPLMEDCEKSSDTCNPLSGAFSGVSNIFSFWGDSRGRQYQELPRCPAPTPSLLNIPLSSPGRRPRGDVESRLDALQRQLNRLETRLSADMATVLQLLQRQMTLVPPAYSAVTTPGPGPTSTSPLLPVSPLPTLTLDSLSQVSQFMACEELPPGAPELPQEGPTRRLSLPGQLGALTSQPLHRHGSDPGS
Description: hERG inhibition patch-clamp assay, CHO-hERG cells. The class given is cell-based. To be noted: hERG tail current, preliminary studies. As for the experimental part:
Pregnane X receptor (PXR) activation was used as a marker of Cyp induction.
The cell was depolarized, and the hERG tail current was measured, and IC50 determined (Cyprotex/Evotec AG).

The subject of data set [2] is cytochrome P450 (Cyp) drug metabolizing enzymes. Description: Time-dependent (mechanism-based) Cyp inhibition. The class given is in vitro ADME, human. As for the experimental part: Cyp enzyme inhibition. Human liver microsomes were pre-incubated with 7 concentrations ([…], duplicate wells) of α-NETA for 30 min.
In a further data set the test system is EAE in C57BL/6 mice. Briefly: EAE induced by MOG35-55/CFA immunization. It counts as in vivo, mouse. To be noted: FIG. 1C; 10 mg/kg daily; compared with Tecfidera or vehicle control. As to the method: FIG. 1A-1D. […] (FIG. 1D) The integrated clinical score over time for each animal was calculated as area under the curve (AUC).
EAE. […] CFA consisted of 5 mg/ml mTB (Mycobacterium-tuberculosis H37 Ra, BD Difco) in IFA (Incomplete Freund's Adjuvant, Sigma). MOG35-55 was reconstituted at 2 mg/ml in PBS. Mice also received 200 ng pertussis toxin (List Biological Laboratories, Inc) by i.p. injection at the time of immunization and two days later. […] For a direct comparison to α-NETA, the DMF and compound doses were also 10 mg/kg in 10% captisol. Mice were monitored daily for clinical disease and scored (0=normal/healthy, 1=limp tail, 2=hindlimb weakness, 3=hindlimb paralysis, 4=hindlimb and forelimb paralysis, 5=moribund/dead).

In data set [3] the test system is IMQ-induced psoriasis in mice. Description: IMQ-induced psoriasis model. The class given is in vivo, mouse. As for the experimental part: FIG. 11A-11G. […] Representative images of the same mouse shown over time. […] Mice were treated twice daily with IMQ±dexamethasone (DEX, 200 ug/mouse) 1 h prior to IMQ treatment. […] (FIG. 11G) NK cell (CD45+DX5+CD11b-CD3-CD19-) infiltration into lesional or non-lesional adjacent skin was determined by flow cytometry (6 day timepoint) for IMQ-treated WT and chemerin KO mice. mean±SEM, n=4 mice per genotype, ***p<0.005 by 2-tailed t-test; **p<0.01 by 2-tailed t-test; *p<0.05 by 1-tailed t-test.
FIG. 13A-13D. […] Fold change with respect to day 0 measurements are shown. […] For A-C, n=3 untreated, n=5 IMQ-treated mice of each genotype, mean±SEM, *p<0.05 by 2-tailed t-test.
as §1

In another data set the test system is C57/BL6 mice. Description: α-NETA acute single dose toxicity (LD50). It counts as in vivo, mouse. The text has this: FIG. 3. Acute single dose toxicity (LD50) of α-NETA. […] The remaining mice were monitored for 14 days. Graph depicts lethality at each dose, n=3 per mice/dose.

Turning to `C[N+](C)(C)CCC(=O)c1cccc2ccccc12.[I-]` [α-NETA, 2-(α-naphthoyl) ethyltrimethylammonium iodide], the half-maximal inhibitory concentration (IC50) at CMKLR1 (Table 2, tertiary amines, chemerin 20 nM, CHO transfectants, read-out: β-arrestin IC50 μM mean ± SEM (n)) was 4.9 ± 1.5 µM; on CMKLR1 (initial studies, 4-5 years earlier, different source of α-NETA, read-out: β-arrestin2 inhibition IC50), 0.38 µM; on CMKLR1 (values given in running text b220, read-out: β-arrestin2 assay IC50), 2.3 µM; against hERG it was above 10000 nM. In data set [1], the “mutagenesis (reversion of an obligate histidine mutation)” value is listed as “did not induce mutagenesis”. In addition, the “time-dependent (mechanism-based) Cyp inhibition” value in data set [2] was “No time-dependent (mechanism-based) Cyp inhibition was detected”. Moreover, in the data set with EAE in C57BL/6 mice, the “severity of clinical EAE” value was “significantly suppressed”. Moreover, the back skin thickening entry in data set [3] (10 mg/kg s.c., 24 h timepoint) is reported as “significantly suppressed”. Further, the back skin acanthosis entry in data set [3] (30 mg/kg p.o. daily, 7 days, vs vehicle control) is recorded as “significantly diminished”. Also, in data set [3] (oral gavage in 10% captisol, FIG. 15D), the “clinical features of experimental psoriasis” value is “suppressed”. Besides, the “calculated LD50, acute single dose” value in the data set on C57/BL6 mice (p.o., mice, 10% captisol) is 873 mg/kg. The lethality entry in the data set on C57/BL6 mice (two highest doses (3000, 1000 mg/kg) by oral gavage) is listed as “Lethal effects were observed within hours”.

What is called IC50 is the point on the concentration scale where inhibition reaches its midpoint.
